Test results published in patent US20240156893A1 (priority 2021, published 2024).
Where “and” joins values, the source holds several entries; their conditions need not be identical. Equal entries are not always repeated.

Key:
[1] = tested on: Lenti virus-like particle expressing VSV-G
[2] = tested on: Influenza A virus (IAV, A/WSN/33); type: cell-based
MDCK-II cells [3] = assay: Parallel residual cytotoxicity test without virus on MDCK-II assay cells (Example 2); type: cell-based, canine; settings: 1% LTX-109, after filtration, no virus
Description: (§1) Appropriate controls were also performed.

[4] = tested on: Respiratory Syncytial Virus (RSV); assay: TCID50 virucidal assay, LTX-109 against RSV on Hep2 cells; type: cell-based; settings: for TCID50/ml ± SEM (average virus titre recovered): 1 h incubation, Hep2 cells
Description: The experiment was performed in triplicates.
as §1

SARS-CoV-2 = type: cell-based
Hep2 cells = settings: 0.1% LTX-109, after filtration, no virus
Description: After 1 hour, the incubation was stopped by adding an excess of cold media, and the formulation was physically separated from the virus through a filter to reduce cytotoxicity on the assay cells. […] Infectious virus was quantified through a serial dilution (a series of ten-fold dilutions) on monolayers of Hep2 cells in microtitre plates (Hep2 cells are mammalian cells capable of displaying a cytopathic effect (CPE) upon viral infection). The starting solution for the serial dilution (i.e. the neat (or undiluted) solution) was obtained by re-suspending the virus that was separated via the filtration step in 1 ml of media. For each dilution of the virus in the dilution series, eight wells of the microtitre plate were tested (i.e. each dilution of virus was applied to eight separate wells, each well containing a Hep2 cell monolayer). Appropriate controls were also performed. […] The TCID50 (TCID50/ml) assay (Tissue Culture Infectious Dose 50 assay) is a type of endpoint dilution assay that is well known in the art and routinely used to quantitatively measure virus titres. TCID50/ml provides a measure of infectious units of virus/ml. “/ml” refers to/ml of the starting solution (i.e. neat/undiluted solution) mentioned above. […]

[5] = tested on: SARS-CoV-2 isolate England/02/2020; type: cell-based; settings: SARS-CoV-2, contact time 1 h at RT; 1% LTX-12 (w/v) in PBS or 0.2% Triton in PBS; Vero cells
Vero cells = assay: Parallel residual cytotoxicity test without virus on Vero assay cells (Example 5); type: cell-based, African green monkey; settings: after filtration, no virus, 1% LTX-12 or 0.2% Triton
Description: as §1

[6] = tested on: Influenza A strain A/WSN/33 (H1N1); type: cell-based, Influenza A virus
MDCK-II cells [7] = assay: Parallel residual cytotoxicity test without virus on MDCK-II assay cells (Example 6); type: cell-based, canine; settings: after filtration, no virus, 1% LTX-7 or 0.2% Triton X-100
Description: as §1

CC(C)(C)c1cc(C(C)(C)C)c2[nH]c(C(C)(C)C)c(CC(NC(=O)C(N)CCCNC(=N)N)C(=O)NC(CCCNC(=N)N)C(=O)NCCc3ccccc3)c2c1 (centres unmarked) [LTX-109]
Effect on envelope of Lenti-virus-like particles (electron microscopy) [1]: disrupted (or dissolved) envelope
TCID50/ml ± SEM (average virus titre recovered) ([2]; 1% LTX-109 (w/v) in PBS, 1 h incubation, MDCK-II cells): 1.58E+01 TCID50/ml and 1.58E+01 ± 0.00E+00 TCID50/ml
Log (virus titre) ([2]; 1% LTX-109, 1 h): 1.20 Log
Percentage (decrease in infectivity vs PBS control) ([2]; 1% LTX-109, 1 h): 99.9% and 99.969%
With Filtration: cytotoxicity on assay cells (dilution up to which seen) (MDCK-II cells [3]): only up to the first dilution
TCID50/ml ± SEM (average virus titre recovered) ([4]; 0.1% LTX-109 (w/v) in PBS): 8.76E+01 TCID50/ml and 8.76E+01 ± 4.11E+01 TCID50/ml
Log (virus titre) ([4]; 0.1% LTX-109, 1 h): 1.78 Log
Percentage (decrease in infectivity vs PBS control) ([4]; 0.1% LTX-109, 1 h): 99.9% and 99.97%
TCID50/ml ± SEM (average virus titre recovered) ([4]; 1% LTX-109 (w/v) in PBS): 1.58E+02 TCID50/ml and 1.58E+02 ± 0.00E+00 TCID50/ml
Log (virus titre) ([4]; 1% LTX-109, 1 h): 2.20 Log
Percentage (decrease in infectivity vs PBS control) ([4]; 1% LTX-109, 1 h): 99.9% and 99.949%
TCID50/ml ± SEM (average virus titre recovered) (SARS-CoV-2; SARS-CoV-2, 1% LTX-109 (w/v) in PBS, 1 h incubation, Vero cells): 1.99E+02 TCID50/ml and 1.99E+02 ± 4.11E+01 TCID50/ml
Log (virus titre) (SARS-CoV-2; SARS-CoV-2, 1% LTX-109, 1 h): 2.28 Log
Percentage (decrease in infectivity vs PBS control) (SARS-CoV-2; SARS-CoV-2, 1% LTX-109, 1 h): 99.99% and 99.995%
With Filtration: cytotoxicity on assay cells (Hep2 cells): No cytotoxicity

CC(C)(C)c1cc(C(C)(C)C)c2[nH]c(C(C)(C)C)c(CC(NC(=O)C(N)CCCCN)C(=O)NC(CCCCN)C(=O)NCCc3ccccc3)c2c1 (stereo not drawn) [LTX-12, Lys-Tbt-Lys-NH—CH2—CH2-Ph]
TCID50/ml ± SEM (average virus titre recovered) [5]: 1.58E+02 TCID50/ml and 1.58E+02 ± 0.00E+00 TCID50/ml
Cytotoxicity on assay cells (Vero cells): no significant cytotoxicity

N=C(N)NCCCC(N)C(=O)NC(Cc1ccc(-c2ccc3ccccc3c2)cc1)C(=O)NC(CCCNC(=N)N)C(=O)NCCc1ccccc1 (centres unmarked) [LTX-7, Arg-Phe(4-(2-Naphthyl))-Arg-NH—CH2—CH2-Ph]
Rounded % (reduction) ([6]; contact time 1 h, 1% LTX-7 or 0.2% Triton X-100): 99.99%
TCID50/ml ± SEM (average virus titre recovered) ([6]; contact time 1 h at RT, 1% LTX-7 (w/v) in PBS or 0.2% Triton X-100 in PBS, MDCK-II cells): 1.58E+01 TCID50/ml and 1.58E+01 ± 0.00E+00 TCID50/ml
Cytotoxicity on assay cells (dilution at which seen) (MDCK-II cells [7]): neat
